# According to patent publication US7494976B2, “Caveolin peptides and their use as therapeutics” (Yale University, priority 2000, dated 2009):
# “Also recorded” adds a separate entry of the source. Ends that are not written are not given here. Peptide text beside a SMILES is read from it.
# What was measured:
# [1] = tested on: mouse aorta; assay: Uptake of biotinylated peptides into the vessel wall of mouse aorta; settings: biotinylated peptides 100 μM, twenty hours, HRP staining
# Protocol: The uptake of AP-Cav into the vessel wall was examined next. A biotinylated version of AP-Cav and AP-Cav-X was synthesized. After twenty hours of incubation with the biotinylated peptides (100 μM) or vehicle, rings were placed in a dish and washed twice with PBS (twenty minutes each time) with light shaking, in order to eliminate the excess of biopeptide that could deposit over the tissue. Then the rings were embedded in OCT medium and cross sections ([…] thickness) were obtained for staining with an avidin-horseradish peroxidase complex and reactivity was detected with 3-amino-9-ethylcarbazole (AEC).
# [2] = tested on: isolated mouse aorta; assay: Ach-induced relaxation of isolated mouse aortic rings (organ bath); settings: AP alone 30 μM, twenty hours incubation
# Protocol: For isolated mouse aortic rings preparations, male C57 black mice (5-7 weeks of age) were anesthetized with methoxyflurane and sacrificed by exsanguination. The thoracic aorta was dissected and cut into cylindrical segments of three millimeters in length. Using a sterile 48-well tissue culture plate, each ring was incubated in a total volume of one ml with either peptides or vehicle (DMSO) diluted in DMEM supplemented with penicillin (100 units/ml), streptomycin (100 μg/ml) and L-glutamine (1 mM). The plate was incubated with 5% CO2. Following incubation with the peptides (one, six, twelve or twenty hours), rings were washed in oxygenated (95% O2-5% CO2) Krebs-Henseleit bicarbonate buffer solution (KHS) of the following composition (NaCl—118.3 mmol/L, KCl—4.7 mmol/L, CaCl2—2.5 mmol/L, MgSO4—1.2 mmol/L, KH2PO4—1.2 mmol/L, NaHCO3—25 mmol/L, glucose—5.6 mmol/L at 37° C. with ibuprofen (10 μM). The rings were suspended by two tungsten wires ([…] thickness) inserted into the lumen and mounted in a vessel myograph system (five ml chamber, Kent Scientific). The mouse aortas were submitted to a resting tension of 1.5 grams and isometric tension was recorded using a force transducer coupled to a MacLab data acquisition system. […] In some experiments concentration-response curves to the contractile effects of PE were monitored.
# [3] = tested on: isolated mouse aortas; assay: Sodium nitroprusside induced (endothelium independent) relaxation of mouse aorta; settings: AP 30 μM, twenty hours; SNP 10 μM
# [4] = tested on: prostacyclin production; assay: Prostacyclin release from mouse aortic rings (6-keto-PGF1α by EIA); settings: ibuprofen 10 μM
# Protocol: To further test the specificity of AP-Cav, Ach-induced prostacyclin production was measured. For measurement of prostacyclin release, after twenty hour incubation period, aortic segments (4-5 mm) were placed in sterile 48-well tissue culture plates with 300 μl of KHS at 37° C. for thirty minutes in an incubator. Then aliquots of […] were taken in order to measure the basal release of prostacyclin. Ach (1 μM) was added and the plate was kept in the incubator for an additional thirty minutes. Aliquots were then taken in order to measure the Ach-stimulated release of prostacyclin. This protocol was performed in absence or in presence of ibuprofen (10 μM). The aliquots were frozen and prostacyclin release was measured as the stable breakdown product, 6-keto-PGF1α, by EIA (Amersham).
# [5] = Systemic arterial blood pressure and heart rate in mice; format: in vivo, mouse
# [6] = conditions of the edema study, n=4 mice
molecule,measurement,setting,value
CC[C@H](C)[C@H](NC(=O)CNC(=O)[C@H](CC(=O)O)NC(=O)[C@H](CCCCN)NC(=O)[C@H](CCCCN)NC(=O)[C@H](Cc1c[nH]c2ccccc12)NC(=O)[C@H](CCCCN)NC(=O)[C@H](CCSC)NC(=O)[C@H](CCCNC(=N)N)NC(=O)[C@H](CCCNC(=N)N)NC(=O)[C@H](CC(N)=O)NC(=O)[C@H](CCC(N)=O)NC(=O)[C@H](Cc1ccccc1)NC(=O)[C@H](Cc1c[nH]c2ccccc12)NC(=O)[C@@H](NC(=O)[C@H](CCCCN)NC(=O)[C@@H](NC(=O)[C@H](CCC(N)=O)NC(=O)[C@H](CCCNC(=N)N)NC(=O)CCCCCNC(=O)CCCC[C@@H]1SC[C@@H]2NC(=O)N[C@@H]21)[C@@H](C)CC)[C@@H](C)CC)C(=O)N[C@@H](Cc1c[nH]c2ccccc12)C(=O)N[C@@H](CCCCN)C(=O)N[C@@H](C)C(=O)N[C@@H](CO)C(=O)N[C@@H](Cc1ccccc1)C(=O)N[C@H](C(=O)N[C@H](C(=O)N[C@@H](Cc1ccccc1)C(=O)N[C@H](C(=O)N[C@H](C(=O)N[C@H](C(=O)N[C@@H](CCCCN)C(=O)N[C@@H](Cc1ccc(O)cc1)C(=O)N[C@@H](Cc1c[nH]c2ccccc12)C(=O)N[C@@H](Cc1ccccc1)C(=O)N[C@@H](Cc1ccc(O)cc1)C(=O)N[C@@H](CCCNC(=N)N)C(=O)O)[C@@H](C)O)C(C)C)[C@@H](C)O)[C@@H](C)O)[C@@H](C)O [Biot-AP-Cav] (HELM PEPTIDE1{[O=C1N[C@H]2[C@H](CS[C@H]2CCCCC(=O)[*:2])N1].[O=C(CCCCCN[*:1])[*:2]].R.Q.I.K.I.W.F.Q.N.R.R.M.K.W.K.K.D.G.I.W.K.A.S.F.T.T.F.T.V.T.K.Y.W.F.Y.R}$$$$V2.0; N-terminus and C-terminus assumed),uptake into the vessel wall,[1],uptake of both AP-Cav and AP-Cav-X into the endothelium and adventitial lining of the vessel
CC[C@H](C)[C@H](NC(=O)CNC(=O)[C@H](Cc1c[nH]c2ccccc12)NC(=O)[C@H](CCCCN)NC(=O)[C@H](CCCCN)NC(=O)[C@H](Cc1c[nH]c2ccccc12)NC(=O)[C@H](CCCCN)NC(=O)[C@H](CCSC)NC(=O)[C@H](CCCNC(=N)N)NC(=O)[C@H](CCCNC(=N)N)NC(=O)[C@H](CC(N)=O)NC(=O)[C@H](CCC(N)=O)NC(=O)[C@H](Cc1ccccc1)NC(=O)[C@H](Cc1c[nH]c2ccccc12)NC(=O)[C@@H](NC(=O)[C@H](CCCCN)NC(=O)[C@@H](NC(=O)[C@H](CCC(N)=O)NC(=O)[C@H](CCCNC(=N)N)NC(=O)CCCCCNC(=O)CCCC[C@@H]1SC[C@@H]2NC(=O)N[C@@H]21)[C@@H](C)CC)[C@@H](C)CC)C(=O)N[C@@H](CC(=O)O)C(=O)N[C@@H](CCCCN)C(=O)N[C@@H](C)C(=O)N[C@@H](Cc1ccccc1)C(=O)N[C@@H](Cc1ccccc1)C(=O)N[C@H](C(=O)N[C@H](C(=O)N[C@@H](CO)C(=O)N[C@H](C(=O)N[C@H](C(=O)N[C@H](C(=O)N[C@@H](Cc1ccc(O)cc1)C(=O)N[C@@H](CCCCN)C(=O)N[C@@H](Cc1c[nH]c2ccccc12)C(=O)N[C@@H](Cc1ccccc1)C(=O)N[C@@H](CCCNC(=N)N)C(=O)N[C@@H](Cc1ccc(O)cc1)C(=O)O)[C@@H](C)O)C(C)C)[C@@H](C)O)[C@@H](C)O)[C@@H](C)O [Biot-AP-Cav-X] (HELM PEPTIDE1{[O=C1N[C@H]2[C@H](CS[C@H]2CCCCC(=O)[*:2])N1].[O=C(CCCCCN[*:1])[*:2]].R.Q.I.K.I.W.F.Q.N.R.R.M.K.W.K.K.W.G.I.D.K.A.F.F.T.T.S.T.V.T.Y.K.W.F.R.Y}$$$$V2.0; N-terminus and C-terminus assumed),uptake into the vessel wall,[1],uptake of both AP-Cav and AP-Cav-X into the endothelium and adventitial lining of the vessel
"AP: Antennapedia internalization sequence (RQIKIWFQNRRMKWKK), SEQ ID NO: 10, alone (Drosophila melanogaster; DOMAIN (1)..(16) Homeodomain, internalization sequence)",effect on Ach-induced relaxation,[2],did not influence Ach-induced relaxation; also recorded: does not affect Ach induced relaxations
same,effect on vasorelaxant properties of sodium nitroprusside,[3],had no effect
CC(C)Cc1ccc(C(C)C(=O)O)cc1 (centres unmarked) [ibuprofen],Ach-induced prostacyclin production (6-keto-PGF1α),[4],abolished
RQIKIWFQNRRMKWKKDGIWKASFTTFTVTKYWFYR [AP-Cav],heart rate,[5]; [6],320±29 beats per minute
same,systemic arterial blood pressure,[5]; [6],80±7 mm Hg
same,effect on blood pressure when delivered in vivo,[5]; preliminary evidence,do not increase blood pressure
